Assay results taken from ChEMBL document CHEMBL1201862, “PubChem BioAssay data set” (2004).
The source made the active and inactive calls.

Columns and labels:
[1] = biological target: Neuropeptide Y receptor type 1 (Homo sapiens, UniProt P25929); type: functional;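 also: HEK293 cells with a CNG channel challenged with NPY then isoproterenol; potency as antagonist that reverses NPY suppression of cAMP signal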
[2] = biological target: Neuropeptide Y receptor type 2 (Homo sapiens, UniProt P49146); type: functional, cell-based;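 also: HEK293 cells expressing the receptor and a CNG channel; stimulus was NPY near EC95 followed by isoproterenol to raise cAMP; antagonist potency measured as restoring cAMP signal that NPY suppresses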
HeLa = assay: Cytotoxicity counterscreen assay for transcriptional activators of heat shock protein 70 (Hsp70). [Related pubchem assays: 1203, 1252 ]; type: functional; conditions: Homo sapiens;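 also: cells exposed to compound for 16 hours before readout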
[3] = biological target: G2/mitotic-specific cyclin-B1 (Homo sapiens, UniProt P14635); assay: Counterscreen assay for inhibitors of Wee1 degradation: dose response cell-based assay to identify inhibitors of cyclin B degradation. [Related pubchem assays: 1410, 1321 ]; type: functional
Wee1-like protein kinase = Wee1-like protein kinase (Homo sapiens, UniProt P30291); assay: Dose Response Cell-based Assay for Inhibitors of Wee1 Degradation. [Related pubchem assays: 1410, 1321 ]; type: functional
[4] = biological target: Mitogen-activated protein kinase 10 (Homo sapiens, UniProt P53779); assay: Dose response biochemical screening assay for inhibitors of c-Jun N-Terminal Kinase 3 (JNK3). [Related pubchem assays: 746 ]
Jurkat = assay: antigen receptor-induced NF-kB inhibitors, dose response, Jurkat, luciferase reporter, luminescence, B- and T-cell (AID 489004); type: functional, cell-based; conditions: Homo sapiens;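 also: NF-kB luciferase reporter Jurkat cells stimulated with PMA plus ionomycin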
[5] = cytotoxicity in HEK-293T NF-kB-Luc cells, dose response, cytotoxicity control for B/T-cell NF-kB inhibitor project, cell-based, uHTS hits (AID 489019); type: functional;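 also: IC50 reflects cytotoxicity as loss of cell viability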
Mucolipin-3 [6] = biological target: T1, Mucolipin-3 (Homo sapiens, UniProt Q8TDD5); assay: Dose response cell-based high-throughput screening assay for agonists of the transient receptor potential channel ML3 (TRPML3). [Related pubchem assays: 1526, 1424, 1448 ]; type: functional
T1 sequence (Q8TDD5 whole entry): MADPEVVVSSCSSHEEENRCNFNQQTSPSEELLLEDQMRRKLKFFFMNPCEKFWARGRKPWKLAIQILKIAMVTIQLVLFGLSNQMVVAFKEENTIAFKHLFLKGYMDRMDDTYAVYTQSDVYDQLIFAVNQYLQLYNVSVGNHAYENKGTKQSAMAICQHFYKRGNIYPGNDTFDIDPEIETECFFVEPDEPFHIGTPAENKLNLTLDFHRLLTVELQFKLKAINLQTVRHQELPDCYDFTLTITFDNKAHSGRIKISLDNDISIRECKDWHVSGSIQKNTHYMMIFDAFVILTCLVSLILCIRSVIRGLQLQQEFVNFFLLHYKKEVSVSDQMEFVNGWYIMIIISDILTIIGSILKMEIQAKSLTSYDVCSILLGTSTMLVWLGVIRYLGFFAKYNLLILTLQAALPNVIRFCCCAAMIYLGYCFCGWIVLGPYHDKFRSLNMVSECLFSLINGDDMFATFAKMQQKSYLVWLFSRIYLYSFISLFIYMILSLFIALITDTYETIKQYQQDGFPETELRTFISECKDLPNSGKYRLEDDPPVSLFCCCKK

Ion channel NompC [7] = biological target: T2, Ion channel NompC (Danio rerio, UniProt Q7T1G6); assay: Fluorescence counterscreen assay for TRPML3 agonists: dose response cell-based high-throughput screening assay to identify agonists of the transient receptor potential channel N1 (TRPN1). [Related pubchem assays: 1526, 1424, 1448 ]; type: functional
Mucolipin-3 [8] = biological target: T1, Mucolipin-3; assay: TRPML3 and TRPML2 channel agonists, cell-based, patch clamp, Fura-2 profiling panel, panel member TRPML3 Dose Response (AID 2116)
Ion channel NompC [9] = biological target: T2, Ion channel NompC; assay: TRPML3 and TRPML2 channel agonists, cell-based, patch clamp, Fura-2 profiling panel, panel member TRPN1 Dose Response (AID 2116)

T2 sequence (Q7T1G6 whole entry): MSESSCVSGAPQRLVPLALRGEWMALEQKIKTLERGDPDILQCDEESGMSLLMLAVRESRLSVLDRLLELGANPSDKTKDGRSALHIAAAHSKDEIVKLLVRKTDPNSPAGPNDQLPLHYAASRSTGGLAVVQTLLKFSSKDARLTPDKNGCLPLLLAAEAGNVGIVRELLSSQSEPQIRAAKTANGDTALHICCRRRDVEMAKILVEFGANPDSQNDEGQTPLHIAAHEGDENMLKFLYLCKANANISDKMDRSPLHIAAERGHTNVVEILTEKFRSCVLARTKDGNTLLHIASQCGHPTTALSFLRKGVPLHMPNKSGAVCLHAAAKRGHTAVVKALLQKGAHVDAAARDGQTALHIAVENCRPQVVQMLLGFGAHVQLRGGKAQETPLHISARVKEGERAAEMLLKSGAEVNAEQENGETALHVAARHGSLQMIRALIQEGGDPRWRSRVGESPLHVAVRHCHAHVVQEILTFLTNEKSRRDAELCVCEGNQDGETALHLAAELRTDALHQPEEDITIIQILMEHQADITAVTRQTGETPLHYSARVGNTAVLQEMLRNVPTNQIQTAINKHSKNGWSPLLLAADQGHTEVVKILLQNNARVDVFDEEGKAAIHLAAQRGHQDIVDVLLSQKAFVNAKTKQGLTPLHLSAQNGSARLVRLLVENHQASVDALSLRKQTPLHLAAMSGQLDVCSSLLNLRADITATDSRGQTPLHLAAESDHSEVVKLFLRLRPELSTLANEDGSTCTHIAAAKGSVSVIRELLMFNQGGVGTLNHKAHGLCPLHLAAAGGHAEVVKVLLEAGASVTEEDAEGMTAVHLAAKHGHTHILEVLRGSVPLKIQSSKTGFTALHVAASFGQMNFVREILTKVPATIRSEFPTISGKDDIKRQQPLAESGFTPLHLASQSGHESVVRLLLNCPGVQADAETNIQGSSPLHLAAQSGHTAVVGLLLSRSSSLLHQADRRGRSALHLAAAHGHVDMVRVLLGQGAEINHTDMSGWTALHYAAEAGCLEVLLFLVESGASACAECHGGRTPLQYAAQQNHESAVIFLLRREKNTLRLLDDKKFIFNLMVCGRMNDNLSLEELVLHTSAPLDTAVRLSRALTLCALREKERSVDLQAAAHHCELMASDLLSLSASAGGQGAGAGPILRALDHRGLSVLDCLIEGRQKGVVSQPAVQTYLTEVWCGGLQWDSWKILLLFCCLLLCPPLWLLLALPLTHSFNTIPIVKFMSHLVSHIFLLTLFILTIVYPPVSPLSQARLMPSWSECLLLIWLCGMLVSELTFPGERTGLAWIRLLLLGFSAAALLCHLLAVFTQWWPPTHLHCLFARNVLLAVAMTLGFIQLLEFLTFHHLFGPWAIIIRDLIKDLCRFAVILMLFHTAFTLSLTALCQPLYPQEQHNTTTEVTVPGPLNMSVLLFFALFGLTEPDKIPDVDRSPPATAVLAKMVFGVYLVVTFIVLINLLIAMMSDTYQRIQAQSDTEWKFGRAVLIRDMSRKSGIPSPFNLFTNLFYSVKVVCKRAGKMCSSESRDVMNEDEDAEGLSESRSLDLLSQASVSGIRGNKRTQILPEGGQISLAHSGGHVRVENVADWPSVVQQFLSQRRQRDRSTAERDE
Neuropeptide Y receptor type 1, sequence (P25929 whole entry): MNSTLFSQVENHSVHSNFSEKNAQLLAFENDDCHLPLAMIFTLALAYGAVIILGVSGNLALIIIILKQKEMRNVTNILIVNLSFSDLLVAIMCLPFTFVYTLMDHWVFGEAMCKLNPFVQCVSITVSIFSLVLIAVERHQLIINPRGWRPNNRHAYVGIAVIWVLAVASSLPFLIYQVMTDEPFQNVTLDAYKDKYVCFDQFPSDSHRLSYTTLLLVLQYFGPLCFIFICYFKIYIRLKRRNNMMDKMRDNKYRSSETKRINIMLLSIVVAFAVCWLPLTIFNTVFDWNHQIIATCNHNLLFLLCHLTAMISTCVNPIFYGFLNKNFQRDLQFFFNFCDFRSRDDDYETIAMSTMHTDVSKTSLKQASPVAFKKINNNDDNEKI
G2/mitotic-specific cyclin-B1, sequence (P14635 whole entry): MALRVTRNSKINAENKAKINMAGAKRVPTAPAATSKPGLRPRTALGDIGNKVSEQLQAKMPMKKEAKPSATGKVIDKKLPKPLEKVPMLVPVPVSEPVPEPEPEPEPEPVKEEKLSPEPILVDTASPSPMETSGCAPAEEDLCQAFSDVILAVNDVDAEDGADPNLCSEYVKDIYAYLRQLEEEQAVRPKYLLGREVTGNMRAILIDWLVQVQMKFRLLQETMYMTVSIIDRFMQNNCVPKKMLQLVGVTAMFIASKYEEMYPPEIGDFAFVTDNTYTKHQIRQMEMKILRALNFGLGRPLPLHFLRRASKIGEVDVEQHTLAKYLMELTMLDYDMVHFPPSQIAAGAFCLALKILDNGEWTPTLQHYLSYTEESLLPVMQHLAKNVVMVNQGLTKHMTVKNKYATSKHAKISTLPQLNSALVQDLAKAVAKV
Mitogen-activated protein kinase 10, sequence (P53779 whole entry): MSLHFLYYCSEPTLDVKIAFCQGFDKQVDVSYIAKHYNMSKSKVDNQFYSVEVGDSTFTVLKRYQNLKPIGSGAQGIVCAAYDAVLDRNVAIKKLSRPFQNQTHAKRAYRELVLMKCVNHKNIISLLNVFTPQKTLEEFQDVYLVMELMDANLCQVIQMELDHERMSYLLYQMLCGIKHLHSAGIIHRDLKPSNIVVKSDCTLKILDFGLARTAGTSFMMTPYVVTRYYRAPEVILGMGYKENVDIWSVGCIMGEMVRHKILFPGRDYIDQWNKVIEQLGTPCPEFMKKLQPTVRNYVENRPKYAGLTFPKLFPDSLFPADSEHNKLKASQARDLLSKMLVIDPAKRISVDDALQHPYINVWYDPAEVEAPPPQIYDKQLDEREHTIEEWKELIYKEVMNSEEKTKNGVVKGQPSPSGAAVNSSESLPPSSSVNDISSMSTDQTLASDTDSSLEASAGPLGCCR
Neuropeptide Y receptor type 2, sequence (P49146 whole entry): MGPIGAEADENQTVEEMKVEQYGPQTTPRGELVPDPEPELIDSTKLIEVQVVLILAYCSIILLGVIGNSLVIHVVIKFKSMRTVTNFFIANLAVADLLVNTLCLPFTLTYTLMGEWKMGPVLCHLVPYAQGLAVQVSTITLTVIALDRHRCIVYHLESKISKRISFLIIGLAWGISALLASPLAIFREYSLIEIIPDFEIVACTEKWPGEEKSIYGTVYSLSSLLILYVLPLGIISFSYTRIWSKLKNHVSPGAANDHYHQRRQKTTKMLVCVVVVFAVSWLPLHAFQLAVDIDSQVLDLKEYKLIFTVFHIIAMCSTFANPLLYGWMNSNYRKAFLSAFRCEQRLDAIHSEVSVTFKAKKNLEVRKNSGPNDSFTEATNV
Wee1-like protein kinase, sequence (P30291 whole entry): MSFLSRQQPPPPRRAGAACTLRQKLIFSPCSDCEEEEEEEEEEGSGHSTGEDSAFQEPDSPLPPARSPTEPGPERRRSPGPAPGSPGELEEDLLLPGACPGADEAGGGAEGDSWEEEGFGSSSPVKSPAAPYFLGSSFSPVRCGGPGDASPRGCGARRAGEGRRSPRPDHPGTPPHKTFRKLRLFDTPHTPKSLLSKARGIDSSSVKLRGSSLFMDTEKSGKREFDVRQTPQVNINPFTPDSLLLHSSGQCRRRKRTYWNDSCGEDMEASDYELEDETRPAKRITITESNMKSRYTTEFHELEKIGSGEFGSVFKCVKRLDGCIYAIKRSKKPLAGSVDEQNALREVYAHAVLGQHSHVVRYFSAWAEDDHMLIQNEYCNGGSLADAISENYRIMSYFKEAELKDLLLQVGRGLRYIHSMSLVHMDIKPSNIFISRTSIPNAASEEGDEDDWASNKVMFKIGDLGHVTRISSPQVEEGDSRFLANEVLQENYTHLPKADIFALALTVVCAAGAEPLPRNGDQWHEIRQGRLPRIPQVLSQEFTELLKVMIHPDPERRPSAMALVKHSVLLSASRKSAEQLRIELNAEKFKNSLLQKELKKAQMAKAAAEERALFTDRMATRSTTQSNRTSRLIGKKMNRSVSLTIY

Compound: CN1CCC(Oc2ccccc2Sc2ccccc2)CC1
- IC50 [1]: 13.6 µM (not active)
- IC50 [2]: 17.5 µM (not active)

Compound: CN(Cc1ccco1)C(=O)Cn1nc(-c2ccc(Cl)cc2)ccc1=O
- CC50 (HeLa): > 99 µM (not active)

Compound: Cc1ccnc(NC(=O)CCCOc2cc(=O)n(C)c3ccccc23)c1
- EC50 [3]: > 49.7 µM (not active)
- EC50 (Wee1-like protein kinase): 7.87 µM (active)
- IC50 [4]: 62.4 µM (not active)
- IC50 (Jurkat): 6.22 µM (active)
- IC50 [5]: > 80 µM (inactive)

Compound: Cc1ccc(N2CCN(S(=O)(=O)N3CCCCC3)CC2)c(C)c1
- EC50 (Mucolipin-3 [6]): 1.43 µM (active)
- EC50 (Ion channel NompC [7]): > 29.9 µM (not active)
- EC50 (Mucolipin-3 [8]): 2 µM (active)
- EC50 (Ion channel NompC [9]): > 29.9 µM (inactive)
